Values joined by “and” are separate entries in the source; they are usually repeats but may differ in a detail not shown here. Equal values may be shown once.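 These data come from cells grown in 96-well plates and exposed to compound for 48 hours at five concentrations. GI50 is the concentration that inhibits growth by half.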 Active and inactive are the calls of the source. Rule as the data show it: active = GI50 up to about 1.1 µM and inactive = higher.
Columns and labels:
Assay in all cases: growth of human tumour cells (NCI), 48 h
[1] = system: K562
[2] = system: NCI-H23
[3] = system: HCT-116
[4] = system: OVCAR-5
[5] = system: SK-MEL-28
[6] = system: M14
[7] = system: RXF 393
[8] = system: HL-60
[9] = system: IGROV-1
[10] = system: TK-10
[11] = system: HOP-92
[12] = system: SF-295
[13] = system: COLO 205
[14] = system: UO-31
[15] = system: DU-145
[16] = system: A549
[17] = system: SF-268
[18] = system: OVCAR-8
[19] = system: CCRF-CEM
[20] = system: HCT-15
[21] = system: Hs-578T
[22] = system: T47D
[23] = system: CAKI-1
[24] = system: SNB-19
[25] = system: SNB-75
[26] = system: KM12
[27] = system: PC-3
[28] = system: RPMI-8226
[29] = system: MOLT-4
[30] = system: SW-620
[31] = system: EKVX
[32] = system: U-251
[33] = system: Malme-3M
[34] = system: MDA-N
[35] = system: SR
[36] = system: SK-MEL-5
[37] = system: OVCAR-4
[38] = system: NCI/ADR-RES
[39] = system: SK-OV-3
[40] = system: UACC-257
[41] = system: 786-0
[42] = system: HT-29
[43] = system: UACC-62
[44] = system: MCF7
[45] = system: HCC 2998
[46] = system: NCI-H460
[47] = system: SF-539
[48] = system: NCI-H522
[49] = system: MDA-MB-435
[50] = system: SK-MEL-2
[51] = system: LOX IMVI
[52] = system: OVCAR-3
[53] = system: SN12C
[54] = system: ACHN
[55] = system: NCI-H226
[56] = system: A498
[57] = system: HOP-62

Compound: COc1cc(OC)c(OC)cc1/C=C\c1nccc2ccccc12
- GI50 [1]: 28.9 µM (inactive)
- GI50 [2]: 23.4 µM (inactive)
- GI50 [3]: 18.1 µM (inactive)
- GI50 [4]: 29.3 µM (inactive)
- GI50 [5]: 29.3 µM (inactive)
- GI50 [6]: 16.7 µM (inactive)
- GI50 [7]: 18.7 µM (inactive)
- GI50 [8]: 18.7 µM (inactive)
- GI50 [9]: 28.5 µM (inactive)
- GI50 [10]: 27.8 µM (inactive)
- GI50 [11]: 15.3 µM (inactive)
- GI50 [12]: 24 µM (inactive)
- GI50 [13]: 22.5 µM (inactive)
- GI50 [14]: 16.8 µM (inactive)
- GI50 [15]: 16.3 µM (inactive)
- GI50 [16]: 25.6 µM (inactive)
- GI50 [17]: 23.3 µM (inactive)
- GI50 [18]: 23.2 µM (inactive)
- GI50 [19]: 76.2 µM (inactive)
- GI50 [20]: > 10 µM
- GI50 [21]: 28.3 µM (inactive)
- GI50 [22]: 24.2 µM (inactive)
- GI50 [23]: 22.5 µM (inactive)
- GI50 [24]: 18.5 µM (inactive)
- GI50 [25]: 23.9 µM (inactive)
- GI50 [26]: 15.1 µM (inactive)
- GI50 [27]: 27.8 µM (inactive)
- GI50 [28]: 18.7 µM (inactive)
- GI50 [29]: 16.1 µM (inactive)
- GI50 [30]: 26.9 µM (inactive)
- GI50 [31]: 22.2 µM (inactive)
- GI50 [32]: 24.9 µM (inactive)
- GI50 [33]: 33 µM (inactive)
- GI50 [34]: > 10 µM (inactive)
- GI50 [35]: 20.9 µM (inactive)
- GI50 [36]: 15.2 µM (inactive)
- GI50 [37]: 29.1 µM (inactive)
- GI50 [38]: 31.2 µM (inactive)
- GI50 [39]: 32.8 µM (inactive)

Compound: O=C1c2ccccc2-c2cc3ccccc3c(=O)n21
- GI50 [1]: > 100 µM (inactive)
- GI50 [2]: > 100 µM (inactive)
- GI50 [40]: > 100 µM (inactive)
- GI50 [3]: > 100 µM (inactive)
- GI50 [41]: 68.5 µM (inactive)
- GI50 [42]: > 100 µM (inactive)
- GI50 [4]: > 100 µM (inactive)
- GI50 [5]: > 100 µM (inactive)
- GI50 [43]: > 100 µM (inactive)
- GI50 [44]: 29 µM (inactive)
- GI50 [45]: > 100 µM (inactive)
- GI50 [46]: > 100 µM (inactive)
- GI50 [6]: 97.3 µM (inactive)
- GI50 [9]: > 100 µM (inactive)
- GI50 [10]: > 100 µM (inactive)
- GI50 [47]: > 100 µM (inactive)
- GI50 [12]: > 100 µM (inactive)
- GI50 [13]: > 100 µM (inactive)
- GI50 [14]: 49.1 µM (inactive)
- GI50 [15]: > 100 µM (inactive)
- GI50 [48]: 15.5 µM (inactive)
- GI50 [16]: > 100 µM (inactive)
- GI50 [17]: > 100 µM (inactive)
- GI50 [18]: > 100 µM (inactive)
- GI50 [19]: > 100 µM (inactive)
- GI50 [20]: > 100 µM
- GI50 [21]: > 100 µM (inactive)
- GI50 [49]: > 100 µM (inactive)
- GI50 [22]: > 100 µM (inactive)
- GI50 [50]: > 100 µM (inactive)
- GI50 [51]: > 100 µM (inactive)
- GI50 [24]: > 100 µM (inactive)
- GI50 [25]: > 100 µM (inactive)
- GI50 [26]: > 100 µM (inactive)
- GI50 [27]: > 100 µM (inactive)
- GI50 [52]: > 100 µM (inactive)
- GI50 [28]: 71.1 µM (inactive)
- GI50 [53]: > 100 µM (inactive)
- GI50 [30]: > 100 µM (inactive)
- GI50 [31]: > 100 µM (inactive)
- GI50 [34]: > 100 µM (inactive)
- GI50 [35]: > 100 µM (inactive)
- GI50 [36]: > 100 µM (inactive)
- GI50 [38]: > 100 µM (inactive)
- GI50 [54]: > 100 µM (inactive)

Compound: CC[C@H]1C[C@@H](O)[C@@H]2[C@H](O)[C@H](O)CN2C1
- GI50 [1]: > 100 µM (inactive)
- GI50 [40]: > 100 µM (inactive)
- GI50 [3]: > 100 µM (inactive)
- GI50 [41]: > 100 µM (inactive)
- GI50 [42]: > 100 µM (inactive)
- GI50 [4]: > 100 µM (inactive)
- GI50 [5]: > 100 µM (inactive)
- GI50 [44]: > 100 µM (inactive)
- GI50 [45]: > 100 µM (inactive)
- GI50 [46]: > 100 µM (inactive)
- GI50 [6]: > 100 µM (inactive)
- GI50 [8]: > 100 µM (inactive)
- GI50 [9]: > 100 µM (inactive)
- GI50 [10]: > 100 µM (inactive)
- GI50 [47]: > 100 µM (inactive)
- GI50 [11]: > 100 µM (inactive)
- GI50 [12]: > 100 µM (inactive)
- GI50 [15]: > 100 µM (inactive)
- GI50 [48]: > 100 µM (inactive)
- GI50 [16]: > 100 µM (inactive)
- GI50 [17]: > 100 µM (inactive)
- GI50 [18]: > 100 µM (inactive)
- GI50 [19]: > 100 µM (inactive)
- GI50 [20]: > 100 µM
- GI50 [21]: > 100 µM (inactive)
- GI50 [49]: > 100 µM (inactive)
- GI50 [22]: > 100 µM (inactive)
- GI50 [50]: > 100 µM (inactive)
- GI50 [51]: > 100 µM (inactive)
- GI50 [24]: > 100 µM (inactive)
- GI50 [25]: > 100 µM (inactive)
- GI50 [26]: > 100 µM (inactive)
- GI50 [55]: > 100 µM (inactive)
- GI50 [27]: > 100 µM (inactive)
- GI50 [52]: > 100 µM (inactive)
- GI50 [28]: > 100 µM (inactive)
- GI50 [29]: > 100 µM (inactive)
- GI50 [53]: > 100 µM (inactive)
- GI50 [30]: > 100 µM (inactive)
- GI50 [31]: > 100 µM (inactive)
- GI50 [32]: > 100 µM (inactive)
- GI50 [33]: > 100 µM (inactive)
- GI50 [34]: > 100 µM (inactive)
- GI50 [36]: > 100 µM (inactive)
- GI50 [37]: > 100 µM (inactive)
- GI50 [38]: > 100 µM (inactive)
- GI50 [39]: > 100 µM (inactive)
- GI50 [54]: > 100 µM (inactive)

Compound: CN1C/C(=C\c2ccccc2[N+](=O)[O-])C(=O)/C(=C/c2ccccc2[N+](=O)[O-])C1
- GI50 [3]: 0.195 µM (active)
- GI50 [41]: 0.277 µM (active)
- GI50 [43]: 0.771 µM (active)
- GI50 [44]: 0.348 µM (active)
- GI50 [45]: 1.01 µM (active)
- GI50 [46]: 1.79 µM (inactive)
- GI50 [8]: 0.112 µM (active)
- GI50 [9]: 0.782 µM (active)
- GI50 [10]: 1.17 µM (inactive)
- GI50 [11]: 0.836 µM (active)
- GI50 [13]: 0.25 µM (active)
- GI50 [14]: 0.303 µM (active)
- GI50 [15]: 2.2 µM (inactive)
- GI50 [16]: 3.55 µM (inactive)
- GI50 [56]: 2.17 µM (inactive)
- GI50 [20]: 0.262 µM
- GI50 [50]: 2.11 µM (inactive)
- GI50 [24]: 4.26 µM (inactive)
- GI50 [25]: 2.21 µM (inactive)
- GI50 [26]: 1.99 µM (inactive)
- GI50 [55]: 5.05 µM (inactive)
- GI50 [27]: 1.23 µM (inactive)
- GI50 [57]: 2.48 µM (inactive)
- GI50 [29]: 0.238 µM (active)
- GI50 [30]: 0.201 µM (active)
- GI50 [32]: 1.19 µM (inactive)
- GI50 [36]: 0.902 µM (active)
- GI50 [38]: 1.03 µM (active)
- GI50 [39]: 3.02 µM (inactive)

Compound: Nc1nc(Cl)c(/N=N/c2ccc(Cl)cc2)c(NCC2(CO)CC(OCc3ccccc3)C2)n1 (centres undefined)
- GI50 [1]: 4.98 µM (inactive) and 3.03 µM (inactive)
- GI50 [8]: 3.63 µM (inactive) and 3.48 µM (inactive)
- GI50 [14]: 2.92 µM (inactive) and 2.08 µM (inactive)
- GI50 [22]: 3.67 µM (inactive) and 3.15 µM (inactive)
- GI50 [23]: 3.31 µM (inactive) and 1.82 µM (inactive)
- GI50 [25]: 6.71 µM (inactive)
- GI50 [33]: 1.62 µM (inactive)
- GI50 [54]: 1.53 µM (inactive) and 1.73 µM (inactive)

From ChEMBL document CHEMBL1201862, “PubChem BioAssay data set” (2004)
